Key:
[1] = system: APTK organoid xenograft tumours; assay: APTK organoid subcutaneous xenograft tumour model: tumour volume, CD3 and cleaved caspase 3 staining; format: in vivo, mouse
Source text: • Colorectal cancer organoids (from here on also referred to as APTK organoids) are generated by the selective introduction of tumourigenic mutation in the gene APC (A), p53 (P), Tgf-beta1 (T) and K-ras (K). Since APTK organoids have been developed on a C57/BL6 genetic background, they can be transplanted to generate tumours in wild type BL6 mice with an intact immune system that allows to study the immune response towards the developing tumour. One week prior to subcutaneous transplantation, the mice are fed either a Urolithin A-containing or control diet. Tumour growth is assessed by calliper measurements. The resulting tumours are analysed histologically.

[2] = Pharmacokinetic profile of orally administered urolithin A; format: in vivo; settings: 250 mg to 1000 mg urolithin A compared with 2000 mg
[3] = system: APTK organoid xenograft tumours; assay: APTK organoid model combined with anti-PD1 injections; format: in vivo, mouse; settings: Urolithin A 200 mpk with isotype control antibody vs anti-PD1 200 μg i.p. every third day, FIG. 8
Experimental: • C57BL/6 mice are transplanted subcutaneously with APTK organoids as described in Example 2 and either, fed with a Urolithin A 200 mpk or control diet (initiated one week prior to subcutaneous injection) and receive 4 intraperitoneal injections (200 μg every third day, starting day 5) of a blocking anti-PD1 or isotype control antibody (BioXCell).

[4] = system: APTK organoid xenograft tumours; assay: APTK organoid model with depletion of CD8+ cytotoxic T cells by anti-CD8; format: in vivo, mouse; settings: UA 200 mpk diet plus anti-CD8 150 μg i.p. every second day, FIG. 7
Experimental: For this model, C57/BL6 were maintained on a Urolithin A 200 mpk or control diet. One week after starting the dietary intervention, mice were transplanted subcutaneously with APTK organoids as described above. Starting at day 3, these mice received 5 intraperitoneal injections (150 μg every second day) of an anti-CD8 or isotype control antibody (BioXCell) to deplete CD8+ cytotoxic T cells. As in the previous experiments, tumour growth is measured by calliper measurements.

[5] = system: AOM model of colorectal cancer; assay: AOM model of colorectal cancer: lesion count/size (H&E) and anti-CD3 immunostaining of colonic mucosa; format: in vivo, mouse
Experimental: • A model of sporadic tumourigenesis can be obtained applying repetitively azoxymethane (AOM), without dextran sodium sulphate, to female wild-type FVB mice. In particular, tumours are induced by six weekly intraperitoneal injections of AOM (10 mg/kg) in wild type animals. Mice are analysed 18-24 weeks later. Urolithin A is applied in the diet at a dose of 50 or 200 mg/kg mouse a day (mpk), or control lab diet one week before starting the 6 injections of AOM, during the 6 weeks of injections with AOM, and for approximately 20 weeks following these injections, for a total of ca. 27-30 weeks. At the end of the treatment period, mice are euthanized by cervical dislocation for the collection of intestinal tissues.

[6] = system: previously treated, unresectable melanoma; settings: patients with previously treated; cited from earlier work
[7] = system: advanced, previously untreated non-small cell lung cancer; settings: patients with advanced; cited from earlier work

Row | Molecule | tumour volume ([1]; UA 200 mpk diet vs control diet, calliper, FIG. 4) | CD3 positive cells at the invasive margin ([1]; UA 200 mpk vs control, FIG. 5) | CD3 positive cells inside the core of the tumours ([1]; UA 200 mpk vs control, FIG. 5) | cleaved Casp3 staining (marker of apoptosis) ([1]; UA 200 mpk vs control, FIG. 6) | pharmacokinetic profile [2] | tumour growth, Urolithin A alone versus anti-PD1 antibody treatment [3] | anti-tumoural effect (tumour volume) when CD8+ cytotoxic T cells are abrogated [4] | number of lesions ([5]; UA 200 mpk in diet vs control diet, H&E of colonic tissue, FIG. 2) | CD3 positive cells in colonic mucosa ([5]; UA 200 mpk vs control, anti-CD3 immunostaining, FIG. 3) | size of lesions ([5]; UA treated animals vs control diet, FIG. 2) | progression free survival [6] | response rate [6] [%] | response rate [7] [%]
1 | O=c1oc2cc(O)ccc2c2ccc(O)cc12 [Urolithin A] | significant lower tumour volume | less CD3 positive cells at the invasive margin | more CD3 positive cells inside the core of the tumours | significant increase of cleaved Casp3 staining | surprisingly good pharmacokinetic profile | no difference was observed | anti-tumoural effect of UA is lost | significantly decreases the number of lesions | tend to have more CD3 positive cells | appear to be of smaller size | – | – | –
2 | nivolumab | – | – | – | – | – | – | – | – | – | – | 9.7 months | 31 | 30
3 | pembrolizumab: humanized monoclonal IgG4 antibody directed against human cell surface receptor PD-1 | – | – | – | – | – | – | – | – | – | – | 50 weeks | 34 | 26

Reference: patent US20210346342A1, “COMBINATION OF AN UROLITHIN WITH AN IMMUNOTHERAPY TREATMENT” (Amazentis SA, priority 2019, published 2021)
